In publication PMC8944544, “IPA-3: An Inhibitor of Diadenylate Cyclase of Streptococcus suis with Potent Antimicrobial Activity” (Antibiotics, 2022):

Key:
[1] = target: T1, diadenylate cyclase of Streptococcus suis (ssDacA) (Streptococcus suis, UniProt A0A0H3N0L3); assay: Kinase-Glo ATP consumption assay with purified enzyme ([…] ssDacA); confirmed by HPLC of c-di-AMP; assay type: biochemical
T1 construct: gene dacA; C-terminal catalytic domain (residues 99 to 283), His-tagged, from S. suis SC19

[2] = target: T1, diadenylate cyclase of Streptococcus suis (ssDacA); assay: HPLC quantification of product formed by purified enzyme; assay type: biochemical

T1 sequence (A0A0H3N0L3 entry or part of it): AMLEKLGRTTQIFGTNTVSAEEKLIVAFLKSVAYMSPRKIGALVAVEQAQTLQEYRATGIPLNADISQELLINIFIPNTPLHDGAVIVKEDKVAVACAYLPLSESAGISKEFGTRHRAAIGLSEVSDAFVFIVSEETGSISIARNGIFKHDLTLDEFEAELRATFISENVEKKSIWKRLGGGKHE

| Structure (SMILES) | IC50 [1] [µM] | HPLC quantification of product formed by purified enzyme [2] |
| --- | --- | --- |
| Oc1ccc2ccccc2c1SSc1c(O)ccc2ccccc12 [IPA-3, 2,2′-dihydroxy-1,1′-dinapthyldisulfide] | 38.2 |  |
| Nc1ncnc2c1ncn2[C@@H]1O[C@@H]2COP(=O)(O)O[C@H]3[C@@H](O)[C@H](n4cnc5c(N)ncnc54)O[C@@H]3COP(=O)(O)O[C@H]2[C@H]1O [c-di-AMP] |  | the catalytic product c-di-AMP in the reaction was detected in the presence and absence of IPA-3 in vitro |
